Measured values reported in publication PMC6934184, “Selective DNA-PKcs inhibition extends the therapeutic index of localized radiotherapy and chemotherapy” (The Journal of Clinical Investigation, 2019).

Target: T1, JAK1 (Homo sapiens, UniProt P23458)
T1 construct: purchased Thermo Fisher Scientific (Life Technologies) SelectScreen
Assay: SelectScreen Z'LYTE
Type: biochemical
How it was run: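 SelectScreen broad panel; activity (Z'LYTE, Adapta) plus binding formats. ATP: Km app for CSF1R Z'LYTE; 10 for CAMK1 Adapta. Readout = % per kinase.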

T1 sequence (P23458 whole entry): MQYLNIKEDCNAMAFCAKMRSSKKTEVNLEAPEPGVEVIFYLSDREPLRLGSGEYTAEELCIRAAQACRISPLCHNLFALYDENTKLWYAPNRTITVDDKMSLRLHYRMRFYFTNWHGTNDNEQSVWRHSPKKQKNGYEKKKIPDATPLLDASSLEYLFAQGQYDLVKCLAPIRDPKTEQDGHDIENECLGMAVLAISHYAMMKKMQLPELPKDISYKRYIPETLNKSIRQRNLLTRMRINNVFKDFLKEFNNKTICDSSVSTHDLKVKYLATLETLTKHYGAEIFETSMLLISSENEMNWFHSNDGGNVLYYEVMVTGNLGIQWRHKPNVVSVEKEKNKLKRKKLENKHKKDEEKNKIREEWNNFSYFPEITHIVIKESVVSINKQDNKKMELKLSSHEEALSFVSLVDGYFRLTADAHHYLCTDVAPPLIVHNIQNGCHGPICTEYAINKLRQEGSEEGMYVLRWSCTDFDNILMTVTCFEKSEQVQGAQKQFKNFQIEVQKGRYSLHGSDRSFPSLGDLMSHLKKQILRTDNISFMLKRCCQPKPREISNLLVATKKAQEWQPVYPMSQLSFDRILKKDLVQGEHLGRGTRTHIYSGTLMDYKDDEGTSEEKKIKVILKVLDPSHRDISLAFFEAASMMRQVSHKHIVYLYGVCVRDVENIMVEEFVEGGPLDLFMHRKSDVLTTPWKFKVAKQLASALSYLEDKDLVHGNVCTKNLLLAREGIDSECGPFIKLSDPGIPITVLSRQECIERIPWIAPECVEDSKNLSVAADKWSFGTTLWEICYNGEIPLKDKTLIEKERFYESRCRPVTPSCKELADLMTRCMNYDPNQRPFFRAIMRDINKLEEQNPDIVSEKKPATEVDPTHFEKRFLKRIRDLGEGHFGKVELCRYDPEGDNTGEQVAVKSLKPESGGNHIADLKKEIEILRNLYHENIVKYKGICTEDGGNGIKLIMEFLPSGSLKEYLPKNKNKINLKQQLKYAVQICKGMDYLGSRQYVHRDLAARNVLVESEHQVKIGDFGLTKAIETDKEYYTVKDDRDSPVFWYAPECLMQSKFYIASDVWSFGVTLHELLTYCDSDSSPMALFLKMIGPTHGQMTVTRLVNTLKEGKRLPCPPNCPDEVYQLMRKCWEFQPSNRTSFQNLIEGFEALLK

`CN(C(=O)CN1CCOCC1)c1ccc2sc3c(-c4cccc5c(=O)cc(N6CC7CCC(C6)O7)oc45)cccc3c2c1` [NU5455] gave an inhibition at 1 µM of -5.7%.
